Assay results published in patent publication US20150315211A1, “SMALL MOLECULES FOR THE MODULATION OF MCL-1 AND METHODS OF MODULATING CELL DEATH, CELL DIVISION, CELL DIFFERENTIATION AND METHODS OF TREATING DISORDERS” (priority 2010, published 2015).
Read-outs that look alike come from different tables or passages of the source.

How the values were obtained:
MCL-1ΔNΔC [1] = test: High-throughput competitive FP binding screen, FITC-MCL-1 SAHB/MCL-1ΔNΔC interaction
BCL-XLΔC = BCL-XLΔC (Homo sapiens, UniProt Q07817); test: High-throughput competitive FP binding screen, FITC-BAD BH3/BCL-XLΔC interaction
Chain of BCL-XLΔC (Q07817 1-212 limits assumed, stated change not applied): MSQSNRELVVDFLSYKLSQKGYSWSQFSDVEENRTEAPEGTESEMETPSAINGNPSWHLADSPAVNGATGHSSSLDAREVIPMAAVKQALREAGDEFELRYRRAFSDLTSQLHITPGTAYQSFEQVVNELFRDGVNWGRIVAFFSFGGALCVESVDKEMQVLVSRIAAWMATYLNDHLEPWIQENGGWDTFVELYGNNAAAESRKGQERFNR

MCL-1ΔNΔC [2] = target: MCL-1ΔNΔC (Homo sapiens, UniProt Q07820); test: High-throughput competitive FP binding screen, FITC-MCL-1 SAHB/MCL-1ΔNΔC interaction; set-up: the C-terminal alpha-helix was deleted from each of these constructs; GST (N, cleaved yes); made in house
Chain of MCL-1ΔNΔC (Homo sapiens, UniProt Q07820) (Q07820 172-320 limits assumed, stated change not applied): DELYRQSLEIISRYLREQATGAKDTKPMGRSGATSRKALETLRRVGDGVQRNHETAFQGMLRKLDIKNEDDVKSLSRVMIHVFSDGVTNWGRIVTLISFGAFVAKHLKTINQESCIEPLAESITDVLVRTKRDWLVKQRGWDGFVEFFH

[3] = selectivity for MCL-1ΔNΔC over BCL-XLΔC targeting (BCL-XL % Bound minus MCL-1 % Bound)
[4] = FITC-BAD BH3/BCL-XLΔC interaction pair, competitive FP screen
[5] = FITC-MCL-1 SAHB/MCL-1ΔNΔC interaction pair, competitive FP screen

Structure (SMILES) | Spec Values (MCL-1ΔNΔC [1]; [3]) | BCL-XL % Bound (BCL-XLΔC; [4]) [%] | MCL-1% Bound (MCL-1ΔNΔC [2]; [5]) [%] | Spec Values (MCL-1ΔNΔC [1]) | BCL-XL % Bound (BCL-XLΔC) [%] | MCL-1% Bound (MCL-1ΔNΔC [2]) [%]
CC1=NN(c2ccccc2)C(=O)/C1=C/c1ccc(OC(=O)c2ccco2)c(Cl)c1 | 47.67 | 96.2 | 48.53 |  |  | 
COc1cc(OC)c(C2=NOC(C(=O)Nc3cc(C)n(CC(=O)NCc4ccco4)n3)C2)cc1Cl (stereo not drawn) | 98.12 | 83.62 | −14.5 |  |  | 
CCc1cccc(NC(=O)/C=C/c2ccco2)c1 | 81.13 | 80.4 | −0.7334 |  |  | 
CC1(C)CC2CC(C)(CN2c2nc(N)c3c(N)nc4c(c3c2C#N)CC(=O)N4C2CCCC2)C1 (stereo not drawn) | 104 | 114.7 | 10.72 |  |  | 
CC(C)(C)c1cc(O)c2oc(=O)c(-c3nc(-c4ccccc4F)no3)cc2c1 | 84.11 | 71.1 | −13.01 |  |  | 
CCOc1ccc(S(=O)(=O)NC2C=C(Sc3nc[nH]n3)C(=O)c3ccccc32)cc1 (stereo not drawn) | 101.1 | 103.4 | 2.333 |  |  | 
O=C1NC(=O)N(CCc2ccc(F)cc2)C(=O)/C1=C\c1ccc(O)c(O)c1 |  |  |  | 50.75 | 81.34 | 30.59
CC1CCc2c(sc3[nH]c(=S)sc(=N)c23)C1 (stereo not drawn) | 64.71 | 83.66 | 18.95 |  |  | 
O=S(=O)(NNc1cnc2ccccc2n1)c1ccccc1C(F)(F)F | 47.02 | 112.4 | 65.42 |  |  | 
Cc1ccc(C(c2c(O)ccc3ccccc23)N2CCOCC2)o1 (stereo not drawn) | 59.04 | 100.8 | 41.79 |  |  | 
O=C(CSc1nc2c(sc(=S)n2Cc2ccco2)c(=O)n1-c1ccccc1)c1ccc(O)c(O)c1 | 61.48 | 120.9 | 59.44 |  |  | 
CS/C(=N\S(=O)(=O)c1ccccc1)NNc1ccccc1 | 59.46 | 99.39 | 39.93 |  |  | 
O=C(O)CC1NC(=S)N(Cc2ccccc2)C1=O (stereo not drawn) | 50.19 | 98.89 | 48.71 |  |  | 
Oc1ccc(NCc2ccc(Br)cc2)cc1 | 56.32 | 90.95 | 34.63 |  |  | 
O=C1NC(=S)C(=C2CCCC2)S1 | 55.3 | 93.34 | 38.05 |  |  | 
Cc1ccc(C)c2[nH]c(=O)c(C(c3nnnn3C3CCCC3)N3CCCC3)cc12 (stereo not drawn) | 63.57 | 103.3 | 39.75 |  |  | 
O=C(CSc1nnc(-c2ccoc2)c(-c2ccoc2)n1)c1ccc(-c2ccccc2)cc1 | 53.14 | 98.52 | 45.38 |  |  | 
Cc1ccc(NCc2n[nH]c(=S)n2-c2ccccc2)cc1 | 51.62 | 94.84 | 43.22 |  |  | 
CN(Cc1ccc(-c2ccc(Br)cc2)o1)C(=O)c1ccc(S(N)(=O)=O)cc1 | 45.66 | 115.2 | 69.53 |  |  | 
COc1ccc(C(=O)c2sc3cc(-c4ccco4)cc(C(F)(F)F)c3c2N)cc1OC | 70.97 | 85.27 | 14.29 |  |  | 
O=C1/C(=C\C=C\c2ccco2)SC(=S)N1NS(=O)(=O)c1ccccc1 | 66.9 | 89.9 | 23.0 |  |  | 
O=C(/C=C/c1ccco1)Nc1ccc(Br)cc1 | 48.95 | 96.9 | 47.95 |  |  | 

Structure (SMILES) | Spec Values (MCL-1ΔNΔC [1]; [3]) | BCL-XL % Bound (BCL-XLΔC; [4]) [%] | MCL-1% Bound (MCL-1ΔNΔC [2]; [5]) [%] | Spec Values (MCL-1ΔNΔC [1]) | BCL-XL % Bound (BCL-XLΔC) [%] | MCL-1% Bound (MCL-1ΔNΔC [2]) [%]
O=C1N/C(=N\c2ccc(F)cc2)S/C1=C/c1ccc(N2CCCCCC2)o1 | 47.38 | 87.8 | 40.42 |  |  | 
O=S(=O)(Nc1ccc(Oc2ccc(Cl)cc2C2CCCCC2)nc1)c1cccc2nonc12 | 82.7 | 103.4 | 20.72 |  |  | 
N#CC1=C(S)NC(=O)C(C#N)C12CCCCC2 (stereo not drawn) | 67.9 | 107.0 | 39.1 |  |  | 
CCCOC(=O)c1cc(-c2ccc(/C=C3\C(=O)N(CCCO)C(=O)C(C#N)=C3C)o2)ccc1Cl | 82.57 | 75.5 | −7.072 |  |  | 
Cc1sc(-n2c(C)cc(C=C3C(=O)NC(=S)NC3=O)c2C)c(C#N)c1C |  |  |  | 56.82 | 102 | 45.2
Cc1ccc(C)c(S(=O)(=O)Nc2cc(Cl)c3oc(=O)sc3c2)c1 | 61.36 | 86.74 | 25.38 |  |  | 
CCN1C(=O)C2Cc3cc(OC)c(OC)cc3CN2C1=O (stereo not drawn) | 51.9 | 91.73 | 39.84 |  |  | 
C=CCN1C(=O)/C(=C\c2ccc(N3CCOCC3)cc2C)C(=O)NC1=S |  |  |  | 49.65 | 82.66 | 33.01
c1ccc2c(c1)nc(Nc1ccc(N3CCCCC3)cc1)c1nncn12 | 55.41 | 90.45 | 35.03 |  |  | 
COc1cc(C2Nc3cccc4cccc(c34)N2)cc(I)c1O | 58.66 | 81.48 | 22.81 |  |  | 
CC1=C(O)C(=O)C=C2C1=CC=C1[C@@]2(C)CC[C@@]2(C)[C@@H]3C[C@](C)(C(=O)O)CC[C@]3(C)CC[C@]12C [Celastrol, reference compound] |  |  |  | 64.19 | 97.09 | 32.9
O=c1c(O)c(-c2ccc(O)c(O)c2)oc2cc(O)cc(O)c12 [Quercetin, reference compound] | 88.65 | 105.3 | 16.69 |  |  | 
Cc1nn2c(S)nnc2nc1O | 168.5 | 102.7 | −65.83 |  |  | 
COc1ccc(N(C)C(=S)Nc2ccc3nc(-c4ccco4)c(-c4ccco4)nc3c2)cc1 [drawing 205] | 72.84 | 81.17 | 8.322 |  |  | 
CN(C)/C=C1\SC(=S)N(c2ccc(Br)cc2)C1=O | 79.08 | 112.3 | 33.27 |  |  | 
Cc1ccc(/C=C2\C(=O)Nc3ccc(Br)cc32)o1 | 58.85 | 77.59 | 18.74 |  |  | 
Cc1ccc(NC(=S)Nc2ccc3nc(-c4ccco4)c(-c4ccco4)nc3c2)cc1 | 78.01 | 75.97 | −2.047 |  |  | 
Cc1ccc(NC(=O)COc2ncnc3c2cnn3-c2ccccc2)cc1 | 83.71 | 99.91 | 16.2 |  |  | 
CC1CCc2c(sc3ncn4c(S)nnc4c23)C1 (stereo not drawn) | 46.37 | 95.03 | 48.65 |  |  | 
O=c1c(O)cccc2cc(O)c(O)c(O)c12 | 53.55 | 33.74 | −19.81 |  |  | 
c1cc2nsnc2c2c1Nc1nc3nonc3nc1N2 | 65.78 | 57.68 | −8.097 |  |  | 
CCCN1C(=O)C(C#N)=C(C)/C(=C\c2ccc(-c3ccc(Br)cc3)o2)C1=O | 81.6 | 102.2 | 20.59 |  |  | 
